Assay results from patent US20220324865A1 (Bayer Aktiengesellschaft, priority 2018, published 2022).

Biological target: T1, human EP3 receptor (Homo sapiens, UniProt P43115)
T1 construct: expressed in transfected cells; host or cells: CHO K1 (Chinese Hamster Ovary), stably co-transfected with Galpha16 and mitochondrial clytin
T1 sequence (P43115 1-390): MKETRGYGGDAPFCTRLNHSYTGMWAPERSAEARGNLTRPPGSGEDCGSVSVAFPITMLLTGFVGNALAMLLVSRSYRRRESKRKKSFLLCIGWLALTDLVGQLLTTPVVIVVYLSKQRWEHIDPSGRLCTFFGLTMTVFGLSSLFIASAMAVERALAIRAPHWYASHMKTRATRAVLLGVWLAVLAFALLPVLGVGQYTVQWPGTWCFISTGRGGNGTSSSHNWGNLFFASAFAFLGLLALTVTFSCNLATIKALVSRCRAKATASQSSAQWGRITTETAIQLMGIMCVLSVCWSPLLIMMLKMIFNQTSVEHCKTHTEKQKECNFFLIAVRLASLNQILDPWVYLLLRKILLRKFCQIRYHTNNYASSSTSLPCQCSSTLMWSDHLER
Assay: Cellular in vitro assay for determining EP3 receptor activity (human EP3 cell line, sulprostone-stimulated calcium luminescence)
Assay type: cell-based
Details: CHO cells expressing human EP3 and mitochondrial Clytin; antagonist mode, sulprostone at EC50; read-out: EP3 CHO mtCLY ANTAG IC50
Procedure, shortened: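 CHO K1 cells stably expressing human EP3 with Gα16 and mitochondrial Clytin, loaded overnight with coelenterazine. Compounds added 10 min before sulprostone at its EC50; antagonism read immediately as reduced calcium-driven luminescence, quadruplicate points.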

SMILES | IC50 [nM]
Cc1cc(CNC(=O)c2nn3cc(-c4cnc5cccc(C)c5c4)[nH]c(=O)c3c2C(C)C)on1 [Example 4-41, N-[(3-Methyl-1,2-oxazol-5-yl)methyl]-6-(5-methylquinolin-3-yl)-4-oxo-3-(propan-2-yl)-4,5-dihydropyrazolo[1,5-a]pyrazine-2-carboxamide] | 0.95
Cc1cc(-c2cn3nc(C(=O)N[C@H](C)C(C)C)c(C4CC4)c3c(=O)[nH]2)ccc1Cl [6-336] | 3.45
COCc1c(C(=O)N[C@@H](c2ccc(F)cc2)C(F)(F)CO)nn2cc(-c3ccc(C)c(Cl)c3)[nH]c(=O)c12 [6-626] | 1.02
COC[C@H](NC(=O)c1nn2cc(-c3ccc(C)c(Cl)c3)[nH]c(=O)c2c1C1CC1)c1ccccc1 [6-277] | 4.1
CC(NC(=O)c1nn2cc(-c3ccc4ccccc4c3)[nH]c(=O)c2c1C#N)c1ccc(F)cc1 (stereo not drawn) [Example 3-52, 3-Cyano-N-[1-(4-fluorophenyl)ethyl]-6-(2-naphthyl)-4-oxo-5H-pyrazolo[1,5-a]pyrazine-2-carboxamide] | 2.25
CC(CN1CCOCC1)NC(=O)c1nn2cc(-c3ccc4ccccc4c3)[nH]c(=O)c2c1C(F)(F)F (single isomer, unassigned) [6-524] | 7
Cc1ccc(-c2cn3nc(C(=O)NCC(C)(N)C(F)(F)F)c(C(F)(F)F)c3c(=O)[nH]2)cc1Cl (racemic) [6-169] | 4.05
Cc1ccc(-c2cn3nc(C(=O)NCC(O)C(F)(F)F)c(C4CC4)c3c(=O)[nH]2)cc1F (single isomer, unassigned; enantiomer1) [Example 1-160, 3-Cyclopropyl-6-(3-fluoro-4-methylphenyl)-4-oxo-N-(3,3,3-trifluoro-2-hydroxpropyl)-4,5-dihydropyrazolo[1,5-a]pyrazine-2-carboxamide (enantiomer1)] | 3.55
Cc1ccc(-c2cn3nc(C(=O)NCC(O)C(F)(F)F)c(C4CC4)c3c(=O)[nH]2)cc1Cl (single isomer, unassigned) [6-259] | 0.64
CC(NC(=O)c1nn2cc(-c3ccc4ccccc4c3)[nH]c(=O)c2c1C#N)c1ccccc1OC(F)F (stereo not drawn) [Example 3-60, 3-Cyano-N-[1-[2-(difluoromethoxy)phenyl]ethyl]-6-(2-naphthyl)-4-oxo-5H-pyrazolo[1,5-a]pyrazine-2-carboxamide] | 1.85
Cc1ccc(-c2cn3nc(C(=O)NC4(c5ccc(F)cc5)CN(C)C4)c(C(F)(F)F)c3c(=O)[nH]2)cc1C [Example 1-93, 6-(3,4-Dimethylphenyl)-N-[3-(4-fluorophenyl)-1-methylazetidin-3-yl]-4-oxo-3-(trifluoromethyl)-4,5-dihydropyrazolo[1,5-a]pyrazine-2-carboxamide] | 3.58
Cc1cc(-c2cn3nc(C(=O)N[C@@H](C)C4CC4)c(C4CC4)c3c(=O)[nH]2)ccc1Cl [6-296] | 1.6
Cc1ccc(-c2[nH]c(=O)c3c(C4CC4)c(C(=O)N[C@@H](c4ccc(F)cc4)C(F)(F)CO)nn3c2F)cc1Cl [6-662] | 6.1
COc1ccc(C2(NC(=O)c3nn4cc(-c5ccc6c(c5)OCCO6)[nH]c(=O)c4c3C3CC3)CN(C)C2)cc1 [6-464] | 3.6
Cc1ccc(-c2cn3nc(C(=O)NC(C)c4ccc(O)cc4)cc3c(=O)[nH]2)cc1C (single isomer, unassigned) [6-349] | 0.88
COc1ccc2c(c1)OC(C)(C)CC2NC(=O)c1nn2cc(-c3cnc4cccc(C)c4c3)[nH]c(=O)c2c1C(C)C (stereo not drawn) [Example 4-79, 3-Isopropyl-N-(7-methoxy-2,2-dimethyl-3,4-dihydro-2-chromen-4-yl)-6-(5-methylquinolin-3-yl)-4-oxo-4,5-dihydropyrazolo[1,5-a]pyrazine-2-carboxamide] | 7.6
Cc1ccc(-c2cn3nc(C(=O)N[C@@H](c4ccccc4)C(C)(C)O)cc3c(=O)[nH]2)cc1C [Example 1-54, 6-(3,4-Dimethylphenyl)-N-[(1S)-2-hydroxy-2-methyl-1-phenylpropyl]-4-oxo-4,5-dihydropyrazolo-[1,5-a]pyrazine-2-carboxamide] | 3.65
COc1ccc([C@@H](NC(=O)c2nn3cc(-c4ccc(C)c(F)c4)[nH]c(=O)c3c2C2CC2)C(F)(F)CO)cn1 [6-400] | 3.65
Cc1cc(-c2cn3nc(C(=O)N[C@H]4CCN(C5CC5)C4)c(C4CC4)c3c(=O)[nH]2)ccc1Cl (single isomer, unassigned) [6-323] | 3.3
Cc1ccc(-c2cn3nc(C(=O)NC(c4ccc(F)cc4)C(C)(C)O)c(C4CC4)c3c(=O)[nH]2)cc1F (racemic) [6-402] | 0.82
Cc1cc(-c2cn3nc(C(=O)N[C@@H](c4ccc(F)cc4)C(C)(C)O)c(C4CC4)c3c(=O)[nH]2)ccc1C(F)(F)F [Example 1-132, 3-Cyclopropyl-N-[(1S)-1-(4-fluorophenyl)-2-hydroxy-2-methylpropyl]-6-[3-methyl-4-(trifluoromethyl)phenyl]-4-oxo-4,5-dihydropyrazolo[1,5-a]pyrazine-2-carboxamide] | 4.05

SMILES | IC50 [nM]
Cc1cccc2ncc(-c3cn4nc(C(=O)NCc5ccc6[nH]c(=O)[nH]c6c5)c(C(C)C)c4c(=O)[nH]3)cc12 [Example 4-80, 6-(5-Methylquinolin-3-yl)-4-oxo-N-[(2-oxo-2,3-dihydro-1H-benzimidazol-5-yl)methyl]-3-(propan-2-yl)-4,5-dihydropyrazolo[1,5-a]pyrazine-2-carboxamide] | 1.35
CC(C)c1c(C(=O)N[C@@H](C)C2CC2)nn2cc(-c3ccc(Cl)c(F)c3)[nH]c(=O)c12 [6-539] | 3.3
O=C(NC1(c2ccc(F)cc2)CN(CC(F)(F)F)C1)c1nn2cc(-c3ccc(Cl)c(F)c3)[nH]c(=O)c2c1C1CC1 [6-103] | 0.74
Cc1ccc(-c2cn3nc(C(=O)NC(C(C)C)C(O)C(F)(F)F)cc3c(=O)[nH]2)cc1C (stereo not drawn) [6-351] | 7
Cc1ccc(-c2cn3nc(C(=O)N[C@@H](c4ccc(F)cc4)C(F)(F)CO)c(C(F)(F)F)c3c(=O)[nH]2)cc1F [6-141] | 2.23
Cc1cccc(C)c1OCC(C)NC(=O)c1cc2c(=O)[nH]c(-c3ccc4ccccc4c3)cn2n1 (stereo not drawn) [Example 2-30, N-[1-(2,6-Dimethylphenoxy)propan-2-yl]-6-(2-naphthyl)-4-oxo-4,5-dihydropyrazolo[1,5-a]pyrazine-2-carboxamide] | 5.45
Cc1cccc2ncc(-c3cn4nc(C(=O)NCc5cnn(C)c5)c(C(C)C)c4c(=O)[nH]3)cc12 [Example 4-37, N-[(1-Methyl-1H-pyrazol-4-yl)methyl]-6-(5-methylquinolin-3-yl)-4-oxo-3-(propan-2-yl)-4,5-dihydropyrazolo[1,5-a]pyrazine-2-carboxamide] | 2
COc1ccc(CCNC(=O)c2nn3cc(-c4ccc5ccccc5c4)[nH]c(=O)c3c2C(C)C)cc1OC [6-85] | 0.887
Cc1ccc(-c2cn3nc(C(=O)NC(c4ccccc4)C(O)C(F)(F)F)cc3c(=O)[nH]2)cc1C (stereo not drawn) [6-350] | 0.78
CCN(CCO)CC(NC(=O)c1cc2c(=O)[nH]c(-c3ccc4ccccc4c3)cn2n1)c1ccccc1 (stereo not drawn) [Example 1-27, N-[2-[Ethyl(2-hydroxyethyl)amino]-1-phenylethyl]-6-(2-naphthyl)-4-oxo-5H-pyrazolo[1,5-a]-pyrazine-2-carboxamide] | 2.25
CCN1CCC(NC(=O)c2nn3cc(-c4ccc(Cl)c(C)c4)[nH]c(=O)c3c2C2CC2)(C(F)(F)F)C1 (racemic) [6-292] | 2.05
Cc1ccc(-c2cn3nc(C(=O)NCC(N)C(F)(F)F)c(C4CC4)c3c(=O)[nH]2)cc1F (single isomer, unassigned) [6-396] | 3.05
Cc1c(C(=O)NC(CO)c2cc(Cl)cc(Cl)c2)nn2c(C)c(-c3ccc4ccccc4c3)[nH]c(=O)c12 (stereo not drawn) [Example 3-40, N-[1-(3,5-Dichlorophenyl)-2-hydroxyethyl]-3,7-dimethyl-6-(2-naphthyl)-4-oxo-5H-pyrazolo[1,5-a]pyrazine-2-carboxamide] | 7.6
CCCc1c(C(=O)N[C@H](C)c2ccc(F)cc2)nn2cc(-c3ccc(C)c(C)c3)[nH]c(=O)c12 [6-614] | 0.82
Cc1ccc(-c2cn3nc(C(=O)NC4(c5ccc(F)cc5)CN(C)C4)c(C4CCC4)c3c(=O)[nH]2)cc1F [6-574] | 1.5
CC(C)(C)OC(=O)N1CC(NC(=O)c2cc3c(=O)[nH]c(-c4ccc5c(c4)OCCO5)cn3n2)(c2ccc(F)cc2)C1 [6-54] | 3.35
Cc1ccc(-c2cn3nc(C(=O)NC4(c5ccc(F)cc5)CC4)cc3c(=O)[nH]2)cc1C(F)(F)F [6-26] | 5
Cc1ccc(-c2cn3nc(C(=O)N[C@H](C)c4ccc(C(F)(F)F)cc4)cc3c(=O)[nH]2)cc1C [Example 1-15, 6-(3,4-Dimethylphenyl)-4-oxo-N-{(1R)-1-[4-(trifluoromethyl)phenyl]ethyl}-4,5-dihydropyrazolo-[1,5-a]pyrazine-2-carboxamide] | 1.7
Cc1cc(-c2cn3nc(C(=O)N[C@H]4CCN(C5CC5)C4)c(C4CC4)c3c(=O)[nH]2)ccc1Cl (single isomer, unassigned) [6-324] | 0.97
Cc1cccc2ncc(-c3cn4nc(C(=O)NCC(C)Cn5cccn5)c(C(C)C)c4c(=O)[nH]3)cc12 (stereo not drawn) [Example 4-30, 3-Isopropyl-N-[2-methyl-3-(1H-pyrazol-1-yl)propyl]-6-(5-methylquinolin-3-yl)-4-oxo-4,5-dihydropyrazolo[1,5-a]pyrazine-2-carboxamide] | 2.7
O=C(NC1CCN(C2CC2)C1)c1nn2cc(-c3ccc4ccccc4c3)[nH]c(=O)c2c1C(F)(F)F (single isomer, unassigned) [6-501] | 5.7
